Laboratory results: US20200138825A1, “METHOD OF TREATING MALIGNANT RHABDOID TUMOR OF THE OVARY (MRTO)/SMALL CELL CANCER OF THE OVARY OF THE HYPERCALCEMIC TYPE(SCCOHT) WITH AN EZH2 INHIBITOR” (Epizyme, Inc., priority 2015, published 2020)
pIC50: −log10 of the molar value.

Columns and labels:
Type in all cases: cell-based
[1] = system: SMARCA4-negative ovarian cell lines; assay: Long term 2D proliferation assay, SMARCA4-negative ovarian cell lines; details: day 14, SMARCA4-negative cell lines
Procedure: (§1) FIG. 13B is a pair of graphs depicting the results of a long term 2D proliferation assay for Compound D in SMARCA4 and ARID1A ovarian cell lines. The day 14 IC50 values are shown.
(§2) A panel of ovarian cancer cell lines of different histologies was subjected to proliferation assays in 2-D tissue culture for 14 days in the presence of increasing concentrations of an EZH2 inhibitor. Selected cell lines were also tested in 3-D cultures. […] In contrast, mutations in ARID1A, another SWI/SNF component, were not observed to broadly confer sensitivity to EZH2 inhibition in ovarian cancer cell lines in either 2-D or 3-D in vitro assays.

[2] = system: ARID1A mutated ovarian cell lines; assay: Long term 2D proliferation assay, ARID1A mutated ovarian cell lines; details: day 14, ARID1A mutated ovarian cell lines
Procedure: as §1, §2

SCCOHT cell line Bin-67 = assay: 14 day proliferation study in Bin-67; details: 336 h; Bin-67, 14 day proliferation, 0.01-10 μM
Procedure: FIG. 13C is a graph displaying the results of a 14 day proliferation study with Compound D in the SMARCA4- and SMARCA2-negative small cell carcinoma of the ovary, hypercalcemic type (SCCOHT) cell line Bin-67. Growth curves are shown for 8 different treatment conditions ranging from 0.01-10 μM.
as §2

H3K27me3 in Bin-67 cells = assay: Western Blot of H3K27me3 levels in Bin-67 cells; details: day 14, all concentrations
[3] = system: ARID1A-mutated ovarian cell lines; assay: 3D growth assay (Scivax Nanoculture), ARID1A-mutated ovarian cell lines; details: after 14 days
Procedure: 3D assays were performed using the Scivax Nanoculture technology whereby the micro-patterned scaffold mimics the ECM.
as §2

SCCOHT cell lines = assay: 14-day proliferation assays, SCCOHT cell lines; details: 336 h, three SCCOHT cell lines
Procedure: as §2

A427 = assay: EZH2 inhibition sensitivity, A427; details: Homo sapiens, A-427, SMARCA2 mRNA/protein loss, SMARCA4 Mutations, KRAS Mutations, read-out: Compound D IC50
Description: (§3) Sensitivity to EZH2 inhibition was examined in various cancer cell lines with similar mutations or loss of SWI/SNF components. Table 7 summarizes the EZH2 activity in additional SWI/SNF altered cancers, including lung adenocarcinoma.

NCl-H23 = assay: EZH2 inhibition sensitivity, NCl-H23; details: SMARCA2 mRNA/protein loss, SMARCA4 Mutations, KRAS Mutations, read-out: Compound D IC50
Description: as §3

NCl-H522 = assay: EZH2 inhibition sensitivity, NCl-H522; details: SMARCA2 mRNA/protein loss, SMARCA4 Mutations, KRAS No mutations or info not available, read-out: Compound D IC50
Description: as §3

A549 = assay: EZH2 inhibition sensitivity, A549 (Proquinase 3D); details: Homo sapiens, Proquinase 3D IC50, SMARCA4 Mutations, KRAS Mutations, read-out: Compound D IC50
Description: as §3

NCl-H1299 = assay: EZH2 inhibition sensitivity, NCl-H1299; details: SMARCA4 Mutations, read-out: Compound D IC50
Description: as §3

NClH838 = assay: EZH2 inhibition sensitivity, NClH838; details: SMARCA4 Mutations, read-out: Compound D IC50
Description: as §3

NClH1793 = assay: EZH2 inhibition sensitivity, NClH1793; details: SMARCA4 Mutations, read-out: Compound D IC50
Description: as §3

Calu-6 = assay: EZH2 inhibition sensitivity, Calu-6; details: Homo sapiens, KRAS Mutations, read-out: Compound D IC50
Description: as §3

NCl-H441 = assay: EZH2 inhibition sensitivity, NCl-H441 (Proquinase 3D); details: Proquinase 3D IC50, KRAS Mutations, read-out: Compound D IC50
Description: as §3

H460 = assay: EZH2 inhibition sensitivity, H460 (Proquinase 3D); details: Homo sapiens, NCI-H460, Proquinase 3D IC50, KRAS Mutations, read-out: Compound D IC50
Description: as §3

NClH2122 = assay: EZH2 inhibition sensitivity, NClH2122; details: KRAS Mutations, read-out: Compound D IC50
Description: as §3

NClH1734 = assay: EZH2 inhibition sensitivity, NClH1734; details: KRAS Mutations, read-out: Compound D IC50
Description: as §3

NClH1373 = assay: EZH2 inhibition sensitivity, NClH1373; details: KRAS Mutations, read-out: Compound D IC50
Description: as §3

NClH1993 = assay: EZH2 inhibition sensitivity, NClH1993; details: no mutations or info not available in SMARCA2, SMARCA4, KRAS, read-out: Compound D IC50
Description: as §3

NClH2110 = assay: EZH2 inhibition sensitivity, NClH2110; details: no mutations or info not available in SMARCA2, SMARCA4, KRAS, read-out: Compound D IC50
Description: as §3

Calu-3 = assay: EZH2 inhibition sensitivity, Calu-3; details: Homo sapiens, no mutations or info not available in SMARCA2, SMARCA4, KRAS, read-out: Compound D IC50
Description: as §3

NClH1563 = assay: EZH2 inhibition sensitivity, NClH1563; details: no mutations or info not available in SMARCA2, SMARCA4, KRAS, read-out: Compound D IC50
Description: as §3

HCC827 = assay: EZH2 inhibition sensitivity, HCC827 (Proquinase 3D); details: Homo sapiens, Proquinase 3D IC50, no mutations or info not available in SMARCA2, SMARCA4, KRAS, read-out: Compound D IC50
Description: as §3

Question: `CCN(c1cc(-c2ccc(CN3CCOCC3)cc2)cc(C(=O)NCc2c(C)cc(C)[nH]c2=O)c1C)[C@H]1CC[C@H](N(C)C)CC1` [Compound D] was tested. Which anti-proliferative effects [1] did it give?
Answer: The anti-proliferative effects was “anti-proliferative effects”.

Question: And the anti-proliferative effects [2]?
Answer: The anti-proliferative effects was “do not”.

Question: What about the pIC50 (SCCOHT cell line Bin-67) of the same compound?
Answer: Its pIC50 is 8.00.

Question: What about the H3K27me3 levels (H3K27me3 in Bin-67 cells) of the same compound?
Answer: The H3K27me3 levels was “completely reduced”.

Question: And the 3D growth effects [3]?
Answer: Its 3D growth effects is “No effects were observed”.

Question: And the pIC50 (SCCOHT cell lines)?
Answer: The pIC50 was 7.77 to 8.30.

Question: What about the pIC50 (A427) of the same compound?
Answer: The pIC50 was 5.64.

Question: What about the pIC50 (NCl-H23) of the same compound?
Answer: Its pIC50 is 5.00.

Question: And the pIC50 (NCl-H522)?
Answer: Its pIC50 is 5.94.

Question: And the pIC50 (A549)?
Answer: The pIC50 was 5.00.

Question: And the pIC50 (NCl-H1299)?
Answer: The pIC50 was 5.00.

Question: And the pIC50 (NClH838)?
Answer: Its pIC50 is 5.00.

Question: What about the pIC50 (NClH1793) of the same compound?
Answer: Its pIC50 is 5.00.

Question: And the pIC50 (Calu-6)?
Answer: Its pIC50 is 9.00.

Question: What about the pIC50 (NCl-H441) of the same compound?
Answer: The pIC50 was 5.00.

Question: And the pIC50 (H460)?
Answer: Its pIC50 is 5.00.

Question: What about the pIC50 (NClH2122) of the same compound?
Answer: The pIC50 was 5.00.

Question: What about the pIC50 (NClH1734) of the same compound?
Answer: Its pIC50 is 5.00.

Question: And the pIC50 (NClH1373)?
Answer: Its pIC50 is 5.00.

Question: And the pIC50 (NClH1993)?
Answer: Its pIC50 is 5.00.

Question: What about the pIC50 (NClH2110) of the same compound?
Answer: The pIC50 was 5.00.

Question: And the pIC50 (Calu-3)?
Answer: Its pIC50 is 5.00.

Question: And the pIC50 (NClH1563)?
Answer: The pIC50 was 5.00.

Question: And the pIC50 (HCC827)?
Answer: Its pIC50 is 5.00.
